Patent US20160113895A1, “Novel Use of Adapalene in Treating Esophageal Cancer and Gastrointestinal Stromal Tumor” (Biodelight Biotech Inc., priority 2013, published 2016)

Columns and labels:
H460 = test: 3D cell proliferation assay (soft agar), H460; type: cell-based, human; details: Homo sapiens, NCI-H460, 3D soft agar
Experimental: (§1) Drug nsl-8 was further subjected to a 3D cell proliferation assay for assessing its potential in inhibiting the growth of NSCLC tumors. The same four NSCLC cell lines used in 2D proliferation assays were grown in soft agar and the drug was added after the agar has solidified. The drug added cells were then incubated several days until colonies have formed in the solvent control. Subsequently, Alamar Blue which was a cell viability reagent was added and the corresponding fluorescence released was measured as an indirect quantification of colony growth in soft agar.
(§2) For each cell line, some 96 well culture plates were prepared. 100 μL of the soft agar bottom layer (0.6% final concentration in complete medium) was poured and left to solidify. 50 μL of the soft agar top layer (0.4% final concentration) containing the corresponding cells and cell number were then added on top, solidified and such 96 well plates were incubated overnight at 37° C. in 10% CO2. Next day, drugs were added at indicated final concentrations into the inner wells of the plate. Subsequently, the assays were incubated in cell culture incubators for the indicated period of time. Finally, the assays were developed using Alamar Blue and upon 3-5 h of incubation at 37 ° C. fluorescence intensity was determined (excitation: 560 nm, emission: 590 nm). […]

A549 [1] = test: 2D cell proliferation assay (Alamar Blue), A549; type: cell-based, human; details: Homo sapiens; 2D, A549, 72 h; read-out: IC50
Excerpt: Nsl-8 was subjected to 2D cell proliferation assays using four NSCLC cell lines (A549 (human adenocarcinomic alveolar basal epithelial cells with k-ras gene mutation), H1299 (human non-small cell lung carcinoma cell line with p53 mutation), H460 (human non-small cell lung carcinoma cell line with k-ras gene mutation), and HCC827 (human NSCLC cells with EGFR mutation of deletion from E746 to A750)) and the results were presented in Table 2. There were eight concentrations used for each drug for determining its IC50. […]. Actinomycin D was a chemotherapeutic drug simply used as a quality control for all the experiments.
In the 2D cell proliferation assay, cells were cultured in DMEM containing 10% FCS and Penicillin/Streptomycin. For the assays, cells were seeded in 150 μL medium on a 96-well cell culture plate and incubated at 37° C. overnight before the compounds were added. Compounds were prepared as predilution which was 16 fold concentrated to the final assay concentration. A day after cell seeding, 10 μL of prediluted compounds was added to the cells (1:16 dilution). Treatment of cells with 0.1% DMSO or 1% DMSO (for the two top concentrations of nsl-8) and 1.0E-05 M Staurosporine was served as high control (100% viability) and low control (0% viability), respectively. Measurement of the impact of compounds on cell viability was performed as follows: 5000 cells (A549 and HCC827) or 2500 cells (H1299 and H460) were seeded in the inner wells of 96-well-plates in 150 μL complete medium. Next day, compounds were added to the medium to reach the final concentration and then incubated at 37° C. in 5% or 10% CO2 depending on the medium for 72 h. Subsequently 10 μL Alamar Blue reagent was added and fluorescence at 590 nm was measured after 5 h incubation at 37° C. in 5% CO2 using a fluorometer.
Raw data were converted into percent cell viability relative to high control (solvent 0.1% DMSO or 1% DMSO for the two top concentrations of drug nsl-8) and low control (1.0E-05 M Staurosporine), which were set to 100% and 0%, respectively.

A549 [2] = test: 3D cell proliferation assay (soft agar), A549; type: cell-based, human; details: Homo sapiens, 3D soft agar
Experimental: as §1, §2

[3] = target: T1, recombinant wild type human EGFR kinase domain (Homo sapiens, UniProt P00533); test: Radiometric protein kinase enzymatic assay; type: biochemical; details: text value (FIG. 1)
T1 construct: A recombinant wild type human EGFR kinase domain expressed in Sf9 insect cells; GST; made in house; host or cells: Sf9 insect cells
T1 sequence (P00533 712-979 limits assumed): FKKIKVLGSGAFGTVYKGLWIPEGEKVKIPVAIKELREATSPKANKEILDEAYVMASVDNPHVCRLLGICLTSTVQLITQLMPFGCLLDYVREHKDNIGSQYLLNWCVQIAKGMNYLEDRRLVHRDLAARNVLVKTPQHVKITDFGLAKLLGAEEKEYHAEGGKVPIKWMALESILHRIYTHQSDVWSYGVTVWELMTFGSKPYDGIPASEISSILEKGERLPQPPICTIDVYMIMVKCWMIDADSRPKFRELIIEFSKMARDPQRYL
Excerpt: Except Tarceva® or Erlotinib which was purchased from LC Laboratories, all the screened compounds were purchased from Sigma-Aldrich. A recombinant wild type human EGFR kinase domain expressed in Sf9 insect cells as a GST-fusion protein was used in the enzymatic assay. The recombinant protein was purified by a GSH-affinity column and the purity of the protein was examined by SDS-PAGE/Coomassie staining and the identity was checked by mass spectroscopy. A radiometric protein kinase assay was used for measuring the kinase activity of the EGFR protein kinase. All the assays were performed in 96-well FlashPlates™ from PerkinElmer (Boston, Mass., USA) in a 50 µL, reaction volume. […] The reaction cocktails were incubated at 30° C. for 60 minutes. […] Incorporation of ^33Pi was determined with a microplate scintillation counter. […]
The median value of the counts in column 1 (n=8) of each assay plate was defined as “low control”. This value reflects unspecific binding of radioactivity to the plate in the absence of a protein kinase but in the presence of the substrate. […] The residual activity (in %) for each well of a particular plate was calculated by using the following formula: […]
The residual activities for each concentration and the drug IC50 values were calculated using GraphPad Prism software. […]

IC50 (H460): 4900 nM
IC50 (A549 [1]): 5400 nM
IC50 (A549 [2]): 990 nM
IC50 [3]: 515 nM
SMILES: COc1ccc(-c2ccc3cc(C(=O)O)ccc3c2)cc1C12CC3CC(CC(C3)C1)C2 [nsl-8, 6-[3-(1-adamantyl)-4-methoxyphenyl]-2-naphthalenecarboxylic acid]
